Each structure is given as a SMILES string. Numbered stars: 1 amine (or outer) side, 2 acyl side, 3 side chain; on linkers, the order of the positions; unused ones are H or OH. Bridge positions count the residues as written; N and C are the ends. Square brackets hold non-standard residues; d marks the D form. Peptide text beside a SMILES is read from it. Adda = CO[C@@H](Cc1ccccc1)[C@@H](C)/C=C(C)/C=C/[C@H](N[*:1])[C@H](C)C(=O)[*:2]; dAsp(3S-Me) = C[C@H](C(=O)[*:3])[C@@H](N[*:1])C(=O)[*:2]; d(γGlu) = O=C(O)[C@@H](CCC(=O)[*:2])N[*:1]; NMeDha = C=C(NC)C(=O)O

For data set [1], the target named is T1, Solute carrier organic anion transporter family member 1A2 (OATP1A2) (Homo sapiens, UniProt P46721).
T1 sequence (P46721 whole entry): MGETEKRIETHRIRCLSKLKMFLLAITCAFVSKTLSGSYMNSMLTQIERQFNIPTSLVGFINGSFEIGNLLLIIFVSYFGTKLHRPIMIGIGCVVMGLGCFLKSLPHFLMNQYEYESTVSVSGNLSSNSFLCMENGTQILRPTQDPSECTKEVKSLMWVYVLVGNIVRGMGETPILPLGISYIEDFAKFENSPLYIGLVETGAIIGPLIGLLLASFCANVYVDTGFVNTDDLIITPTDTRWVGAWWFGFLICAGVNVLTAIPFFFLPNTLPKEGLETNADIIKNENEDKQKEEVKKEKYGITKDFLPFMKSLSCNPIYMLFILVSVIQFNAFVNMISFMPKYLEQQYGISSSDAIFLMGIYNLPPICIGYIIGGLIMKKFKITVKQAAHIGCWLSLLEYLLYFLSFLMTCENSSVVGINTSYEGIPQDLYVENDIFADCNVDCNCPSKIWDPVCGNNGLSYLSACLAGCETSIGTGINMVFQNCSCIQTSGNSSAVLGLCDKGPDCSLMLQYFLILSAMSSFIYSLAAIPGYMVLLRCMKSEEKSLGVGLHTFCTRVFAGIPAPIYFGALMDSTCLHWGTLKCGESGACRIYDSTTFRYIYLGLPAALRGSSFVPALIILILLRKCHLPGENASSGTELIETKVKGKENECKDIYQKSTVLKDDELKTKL
Put plainly: (§1) TP_TRANSPORTER: uptake in Xenopus laevis oocytes. It is filed as functional, cell-based, Oocyte.

Data set [2] concerns the target T2, Solute carrier organic anion transporter family member 1B1 (OATP1B1) (Homo sapiens, UniProt Q9Y6L6).
T2 sequence (Q9Y6L6 whole entry): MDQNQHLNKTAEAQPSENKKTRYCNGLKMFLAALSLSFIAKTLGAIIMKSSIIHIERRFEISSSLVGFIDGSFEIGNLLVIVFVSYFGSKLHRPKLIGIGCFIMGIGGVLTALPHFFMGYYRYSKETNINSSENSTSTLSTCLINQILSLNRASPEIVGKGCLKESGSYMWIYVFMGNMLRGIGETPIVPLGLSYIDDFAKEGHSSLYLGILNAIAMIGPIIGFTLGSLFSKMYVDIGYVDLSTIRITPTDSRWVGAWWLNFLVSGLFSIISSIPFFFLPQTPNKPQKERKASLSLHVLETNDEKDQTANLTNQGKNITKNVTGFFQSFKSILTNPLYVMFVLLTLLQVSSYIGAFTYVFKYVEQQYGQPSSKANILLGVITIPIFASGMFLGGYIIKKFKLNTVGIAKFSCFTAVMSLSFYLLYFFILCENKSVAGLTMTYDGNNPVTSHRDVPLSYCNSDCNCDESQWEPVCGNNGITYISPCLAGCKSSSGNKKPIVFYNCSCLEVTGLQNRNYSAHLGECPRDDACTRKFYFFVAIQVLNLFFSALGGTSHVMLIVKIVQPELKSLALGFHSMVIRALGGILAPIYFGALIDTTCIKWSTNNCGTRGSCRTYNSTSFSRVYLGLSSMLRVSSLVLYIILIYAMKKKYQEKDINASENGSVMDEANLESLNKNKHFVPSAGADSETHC
Described as §1. In kind it is functional, cell-based, Oocyte.

Data set [3] addresses T3, Solute carrier organic anion transporter family member 1B3 (OATP1B3) (Homo sapiens, UniProt Q9NPD5).
T3 sequence (Q9NPD5 whole entry): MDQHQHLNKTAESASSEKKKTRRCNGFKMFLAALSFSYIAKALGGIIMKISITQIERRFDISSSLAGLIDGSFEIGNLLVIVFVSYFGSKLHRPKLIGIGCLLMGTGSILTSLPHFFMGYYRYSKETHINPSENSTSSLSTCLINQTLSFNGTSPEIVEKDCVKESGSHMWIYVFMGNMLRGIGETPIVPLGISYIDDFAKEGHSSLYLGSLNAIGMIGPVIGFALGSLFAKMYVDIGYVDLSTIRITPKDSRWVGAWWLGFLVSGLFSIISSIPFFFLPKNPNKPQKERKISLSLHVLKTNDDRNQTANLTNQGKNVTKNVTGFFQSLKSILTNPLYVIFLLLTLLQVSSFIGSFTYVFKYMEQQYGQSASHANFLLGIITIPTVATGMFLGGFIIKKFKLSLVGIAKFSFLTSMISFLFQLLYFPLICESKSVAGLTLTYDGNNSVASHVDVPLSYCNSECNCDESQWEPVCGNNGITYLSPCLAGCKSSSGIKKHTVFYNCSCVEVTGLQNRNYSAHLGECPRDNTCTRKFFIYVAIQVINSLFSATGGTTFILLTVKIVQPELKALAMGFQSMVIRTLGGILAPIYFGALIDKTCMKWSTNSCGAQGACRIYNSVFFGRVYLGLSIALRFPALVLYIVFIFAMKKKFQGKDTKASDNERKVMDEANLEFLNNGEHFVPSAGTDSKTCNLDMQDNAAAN
The data set is described as §1. It is filed as functional, cell-based, Oocyte.

Data set [4] has as its target T4, Solute carrier organic anion transporter family member 1A1 (Rattus norvegicus, UniProt P46720).
T4 sequence (P46720 whole entry): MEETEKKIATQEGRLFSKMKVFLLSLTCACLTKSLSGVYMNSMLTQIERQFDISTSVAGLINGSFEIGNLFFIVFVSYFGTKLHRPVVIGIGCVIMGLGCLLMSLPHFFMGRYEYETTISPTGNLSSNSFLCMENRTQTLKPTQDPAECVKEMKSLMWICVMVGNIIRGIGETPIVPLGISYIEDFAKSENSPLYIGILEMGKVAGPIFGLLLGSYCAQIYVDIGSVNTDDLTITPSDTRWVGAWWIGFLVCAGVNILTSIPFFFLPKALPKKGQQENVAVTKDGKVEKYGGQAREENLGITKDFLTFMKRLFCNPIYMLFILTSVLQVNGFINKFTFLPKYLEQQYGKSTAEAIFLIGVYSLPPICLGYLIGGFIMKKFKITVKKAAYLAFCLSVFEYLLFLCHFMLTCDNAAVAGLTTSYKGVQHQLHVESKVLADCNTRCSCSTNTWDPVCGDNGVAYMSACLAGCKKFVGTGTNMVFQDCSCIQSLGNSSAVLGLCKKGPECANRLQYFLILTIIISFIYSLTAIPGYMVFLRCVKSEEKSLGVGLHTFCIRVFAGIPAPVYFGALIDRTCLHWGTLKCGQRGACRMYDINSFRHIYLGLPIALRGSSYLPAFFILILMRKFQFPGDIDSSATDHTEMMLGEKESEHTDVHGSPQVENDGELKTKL
The description is as §1. It is filed as functional, cell-based. The following applies: oocyte.

In data set [5] the target is T5, Solute carrier organic anion transporter family member 1A4 (Rattus norvegicus, UniProt O35913).
T5 sequence (O35913 whole entry): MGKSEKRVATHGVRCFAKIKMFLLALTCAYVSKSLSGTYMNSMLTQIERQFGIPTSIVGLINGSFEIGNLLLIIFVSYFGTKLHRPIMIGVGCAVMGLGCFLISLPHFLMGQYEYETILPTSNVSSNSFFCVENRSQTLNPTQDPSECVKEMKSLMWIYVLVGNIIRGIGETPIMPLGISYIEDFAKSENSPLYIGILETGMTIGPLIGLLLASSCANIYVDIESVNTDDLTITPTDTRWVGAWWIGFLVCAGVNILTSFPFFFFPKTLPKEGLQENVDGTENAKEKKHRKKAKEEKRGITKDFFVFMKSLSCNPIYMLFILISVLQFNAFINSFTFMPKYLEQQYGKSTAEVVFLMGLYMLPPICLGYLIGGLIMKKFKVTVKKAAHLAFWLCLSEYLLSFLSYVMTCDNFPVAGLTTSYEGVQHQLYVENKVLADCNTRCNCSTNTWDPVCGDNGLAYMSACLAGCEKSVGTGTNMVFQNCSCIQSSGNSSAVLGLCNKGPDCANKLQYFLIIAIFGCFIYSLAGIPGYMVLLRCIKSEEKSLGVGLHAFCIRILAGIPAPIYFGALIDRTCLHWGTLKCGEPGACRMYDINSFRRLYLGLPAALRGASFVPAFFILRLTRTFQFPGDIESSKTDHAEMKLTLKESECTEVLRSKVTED
Described as §1. To be noted: oocyte. It is filed as functional, cell-based.

The target of data set [6] is T6, Solute carrier organic anion transporter family member 1B2 (Rattus norvegicus, UniProt Q9QZX8).
T6 sequence (Q9QZX8 whole entry): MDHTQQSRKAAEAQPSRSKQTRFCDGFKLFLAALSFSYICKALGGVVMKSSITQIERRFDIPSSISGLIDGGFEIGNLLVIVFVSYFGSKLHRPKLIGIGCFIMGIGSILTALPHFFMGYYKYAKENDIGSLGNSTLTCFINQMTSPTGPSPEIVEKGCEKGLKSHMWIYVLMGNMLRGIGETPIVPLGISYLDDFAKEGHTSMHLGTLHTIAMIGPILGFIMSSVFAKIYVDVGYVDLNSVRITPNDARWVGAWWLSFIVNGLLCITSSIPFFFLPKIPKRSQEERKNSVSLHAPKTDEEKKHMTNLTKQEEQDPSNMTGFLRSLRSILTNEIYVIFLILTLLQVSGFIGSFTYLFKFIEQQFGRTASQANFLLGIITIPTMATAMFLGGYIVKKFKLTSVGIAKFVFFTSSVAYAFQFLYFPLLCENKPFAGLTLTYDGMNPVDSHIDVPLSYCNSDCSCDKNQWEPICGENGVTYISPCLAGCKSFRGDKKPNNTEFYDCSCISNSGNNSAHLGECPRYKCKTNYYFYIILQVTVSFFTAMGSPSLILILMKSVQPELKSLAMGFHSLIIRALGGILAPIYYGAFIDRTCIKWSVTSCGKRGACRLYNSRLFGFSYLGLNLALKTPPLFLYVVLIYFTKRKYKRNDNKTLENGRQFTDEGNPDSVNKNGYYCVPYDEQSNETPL
The description is as §1. It is filed as functional, cell-based. To be noted: oocyte.

Data set [7] deals with T7, Solute carrier organic anion transporter family member 2B1 (Homo sapiens, UniProt O94956).
T7 sequence (O94956 whole entry): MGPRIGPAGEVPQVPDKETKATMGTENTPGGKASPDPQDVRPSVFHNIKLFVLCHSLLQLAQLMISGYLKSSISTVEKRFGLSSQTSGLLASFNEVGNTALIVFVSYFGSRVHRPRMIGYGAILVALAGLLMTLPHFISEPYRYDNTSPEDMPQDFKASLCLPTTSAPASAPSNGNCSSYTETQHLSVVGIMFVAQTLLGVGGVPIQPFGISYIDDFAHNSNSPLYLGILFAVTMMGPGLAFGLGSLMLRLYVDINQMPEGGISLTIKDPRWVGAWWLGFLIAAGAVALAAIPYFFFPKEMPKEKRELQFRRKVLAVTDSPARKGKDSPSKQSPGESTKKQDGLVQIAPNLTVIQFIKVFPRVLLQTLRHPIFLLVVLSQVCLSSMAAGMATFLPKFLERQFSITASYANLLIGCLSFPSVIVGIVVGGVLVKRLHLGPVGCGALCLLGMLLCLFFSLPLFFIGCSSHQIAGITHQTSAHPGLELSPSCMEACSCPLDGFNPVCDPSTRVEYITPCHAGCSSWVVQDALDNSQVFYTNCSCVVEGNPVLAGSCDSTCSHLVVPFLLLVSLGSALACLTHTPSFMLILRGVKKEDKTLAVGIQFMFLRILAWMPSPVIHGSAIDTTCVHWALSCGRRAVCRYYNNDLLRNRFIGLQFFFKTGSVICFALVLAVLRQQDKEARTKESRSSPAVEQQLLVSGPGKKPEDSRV
The description is as §1. In kind it is functional, cell-based. To be noted: oocyte.

For `C=C1C(=O)N[C@H](C)C(=O)N[C@@H](CC(C)C)C(=O)N[C@@H](C(=O)O)[C@H](C)C(=O)N[C@@H](CCCNC(=N)N)C(=O)N[C@@H](/C=C/C(C)=C/[C@H](C)[C@H](Cc2ccccc2)OC)[C@H](C)C(=O)N[C@@H](C(=O)O)CCC(=O)N1C` [MICROCYSTIN-LR] (R[Adda][d(γGlu)][NMeDha][dA]L[dAsp(3S-Me)]-OH; lactam N-7), the Km in data set [1] amounted to 20 µM; in data set [2], 12.4 µM; in data set [3] it was 12.4 µM. Further, the Activity entry in data set [4] is “is not a substrate [(-)]”; in data set [5], “is not a substrate [(-)]”; in data set [6], “substrate [(+)]”; in data set [7], “is not a substrate [(-)]”.

The values are drawn from ChEMBL document CHEMBL2074479, “Organic anion transporting polypeptides expressed in liver and brain mediate uptake of microcystin” (Toxicol Appl Pharmacol, 2005).
